From PubChem BioAssay (NCI)
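Interpolation was linear, between the two tested concentrations surrounding the appropriate level; five concentrations were tested over 48 hours in 96-well plates. TGI: total growth inhibition.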

Key:
Test in all cases: growth of human tumour cells (NCI), 48 h
SF-268 CNS = system: SF-268 CNS
IGROV1 ovarian = system: IGROV1 ovarian
UO-31 renal = system: UO-31 renal
DU-145 prostate = system: DU-145 prostate
SR leukemia = system: SR leukemia
SW-620 colon = system: SW-620 colon
HT29 colon = system: HT29 colon
OVCAR-3 ovarian = system: OVCAR-3 ovarian
MOLT-4 leukemia = system: MOLT-4 leukemia
OVCAR-4 ovarian = system: OVCAR-4 ovarian
LOX IMVI melanoma = system: LOX IMVI melanoma
HOP-62 NSCLC = system: HOP-62 NSCLC
SNB-19 CNS = system: SNB-19 CNS
TK-10 renal = system: TK-10 renal
RXF 393 renal = system: RXF 393 renal
A498 renal = system: A498 renal
HCC-2998 colon = system: HCC-2998 colon
BT-549 breast = system: BT-549 breast
HOP-92 NSCLC = system: HOP-92 NSCLC
SK-OV-3 ovarian = system: SK-OV-3 ovarian
ACHN renal = system: ACHN renal
SK-MEL-2 melanoma = system: SK-MEL-2 melanoma
K-562 leukemia = system: K-562 leukemia
PC-3 prostate = system: PC-3 prostate
M14 melanoma = system: M14 melanoma
UACC-62 melanoma = system: UACC-62 melanoma
A549 NSCLC = system: A549 NSCLC
RPMI-8226 leukemia = system: RPMI-8226 leukemia
SF-295 CNS = system: SF-295 CNS
UACC-257 melanoma = system: UACC-257 melanoma
OVCAR-8 ovarian = system: OVCAR-8 ovarian
MDA-MB-435 = system: MDA-MB-435
CCRF-CEM leukemia = system: CCRF-CEM leukemia
SF-539 CNS = system: SF-539 CNS
HCT-116 colon = system: HCT-116 colon
T-47D breast = system: T-47D breast
U251 CNS = system: U251 CNS
NCI/ADR-RES ovarian = system: NCI/ADR-RES ovarian
EKVX NSCLC = system: EKVX NSCLC
MCF7 breast = system: MCF7 breast
COLO 205 colon = system: COLO 205 colon
HS 578T breast = system: HS 578T breast
SK-MEL-5 melanoma = system: SK-MEL-5 melanoma
MDA-MB-231 breast = system: MDA-MB-231 breast
HCT-15 colon = system: HCT-15 colon
NCI-H460 lung = system: NCI-H460 lung
NCI-H522 lung = system: NCI-H522 lung
KM12 colon = system: KM12 colon
SN12C renal = system: SN12C renal
SK-MEL-28 melanoma = system: SK-MEL-28 melanoma
CAKI-1 renal = system: CAKI-1 renal
OVCAR-5 ovarian = system: OVCAR-5 ovarian
NCI-H226 lung = system: NCI-H226 lung
786-0 renal = system: 786-0 renal
MDA-N = system: MDA-N
NCI-H23 lung = system: NCI-H23 lung
MALME-3M melanoma = system: MALME-3M melanoma

## O=C1NCN(c2ccccc2)C12CCN(CCCN1CCN(CCOC(c3ccc(F)cc3)c3ccc(F)cc3)CC1)CC2
SF-268 CNS
  TGI: 3.79 µM
IGROV1 ovarian
  TGI: 4.24 µM
UO-31 renal
  TGI: 3.25 µM
DU-145 prostate
  TGI: 3.34 µM
SR leukemia
  TGI: 6.67 µM
SW-620 colon
  TGI: 7.87 µM
HT29 colon
  TGI: 3.97 µM
OVCAR-3 ovarian
  TGI: 3.86 µM
MOLT-4 leukemia
  TGI: 15.1 µM
OVCAR-4 ovarian
  TGI: 9.58 µM
LOX IMVI melanoma
  TGI: 3.39 µM
HOP-62 NSCLC
  TGI: 3.81 µM
SNB-19 CNS
  TGI: 6.57 µM
TK-10 renal
  TGI: 3.2 µM
RXF 393 renal
  TGI: 2.25 µM
A498 renal
  TGI: 3.35 µM
HCC-2998 colon
  TGI: 2.93 µM
BT-549 breast
  TGI: 5.44 µM
HOP-92 NSCLC
  TGI: 3.9 µM
SK-OV-3 ovarian
  TGI: 4.61 µM
ACHN renal
  TGI: 3.85 µM
SK-MEL-2 melanoma
  TGI: 3.71 µM
K-562 leukemia
  TGI: 10.5 µM
PC-3 prostate
  TGI: 10.9 µM
M14 melanoma
  TGI: 3.48 µM
UACC-62 melanoma
  TGI: 3.75 µM
A549 NSCLC
  TGI: 4.14 µM
RPMI-8226 leukemia
  TGI: 4.95 µM
SF-295 CNS
  TGI: 3.38 µM
UACC-257 melanoma
  TGI: 3.44 µM
OVCAR-8 ovarian
  TGI: 4.82 µM
MDA-MB-435
  TGI: 3.26 µM
CCRF-CEM leukemia
  TGI: > 100 µM
SF-539 CNS
  TGI: 3.26 µM
HCT-116 colon
  TGI: 3.32 µM
T-47D breast
  TGI: 3.09 µM
U251 CNS
  TGI: 3.45 µM
NCI/ADR-RES ovarian
  TGI: 26.7 µM
EKVX NSCLC
  TGI: 9.81 µM
MCF7 breast
  TGI: 3.99 µM
COLO 205 colon
  TGI: 3.18 µM
HS 578T breast
  TGI: 4.67 µM
SK-MEL-5 melanoma
  TGI: 3.09 µM
MDA-MB-231 breast
  TGI: 4.43 µM
HCT-15 colon
  TGI: 5.3 µM
NCI-H460 lung
  TGI: 4.32 µM
NCI-H522 lung
  TGI: 3.69 µM
KM12 colon
  TGI: 6.09 µM
SN12C renal
  TGI: 4.14 µM
SK-MEL-28 melanoma
  TGI: 6.3 µM
CAKI-1 renal
  TGI: 5.07 µM
OVCAR-5 ovarian
  TGI: 11.4 µM
NCI-H226 lung
  TGI: 3.84 µM
786-0 renal
  TGI: 3.2 µM
MDA-N
  TGI: 3.65 µM
NCI-H23 lung
  TGI: 9.69 µM
MALME-3M melanoma
  TGI: 2.68 µM
